According to US20250098679A1, “HERBICIDAL PYRIDONE DERIVATIVES” (SYNGENTA CROP PROTECTION AG, priority 2021, published 2025):

Columns and labels:
Format in all cases: in vivo
Conditions in all cases: evaluated after 13 days
[1] = tested on: Setaria faberi (SETFA); experiment: Post-emergence Test, Setaria faberi (SETFA); set-up: key to percentage damage caused to the plant, SETFA (five-point scale): 5=81-100%, 4=61-80%, 3=41-60%, 2=21-40%, 1=0-20% damage
Protocol: (§1) Seeds of a variety of test species are sown in standard soil in pots (Setaria faberi (SETFA), Echinochloa crus-galli (ECHCG), Zea mays (ZEAMX), Ipomoea hederacea (IPOHE), Amaranthus palmeri (AMAPA), Amaranthus retoflexus (AMARE)). After 8 days cultivation under controlled conditions in a glasshouse (at 24° C./16° C., day/night; 14 hours light; 65% humidity), the plants are sprayed with an aqueous spray solution derived from the formulation of the technical active ingredient in acetone/water (50:50) solution containing 0.5% Tween 20 (polyoxyethelyene sorbitan monolaurate, CAS RN 9005-64-5). Compounds are applied at 1000 g/ha unless otherwise stated. The test plants are then grown in a glasshouse under controlled conditions in a glasshouse (at 24° C./16° C., day/night; 14 hours light; 65% humidity) and watered twice daily. After 13 days the test is evaluated for the percentage damage caused to the plant. The biological activities are shown in the following table on a five-point scale (5=81-100%; 4=61-80%; 3=41-60%; 2=21-40%; 1=0-20%; -=not tested).

[2] = tested on: Echinochloa crus-galli (ECHCG); experiment: Post-emergence Test, Echinochloa crus-galli (ECHCG); set-up: key to percentage damage caused to the plant, ECHCG (five-point scale): 5=81-100%, 4=61-80%, 3=41-60%, 2=21-40%, 1=0-20% damage
Protocol: as §1

[3] = tested on: Zea mays (ZEAMX); experiment: Post-emergence Test, Zea mays (ZEAMX); set-up: key to percentage damage caused to the plant, ZEAMX (five-point scale): 5=81-100%, 4=61-80%, 3=41-60%, 2=21-40%, 1=0-20% damage
Protocol: as §1

[4] = tested on: Ipomoea hederacea (IPOHE); experiment: Post-emergence Test, Ipomoea hederacea (IPOHE); set-up: key to percentage damage caused to the plant, IPOHE (five-point scale): 5=81-100%, 4=61-80%, 3=41-60%, 2=21-40%, 1=0-20% damage
Protocol: as §1

[5] = tested on: Amaranthus palmeri (AMAPA); experiment: Post-emergence Test, Amaranthus palmeri (AMAPA); set-up: key: 5=81-100%, 4=61-80%, 3=41-60%, 2=21-40%, 1=0-20% damage
Protocol: as §1

[6] = tested on: Amaranthus retoflexus (AMARE); experiment: Post-emergence Test, Amaranthus retoflexus (AMARE); set-up: key to percentage damage caused to the plant, AMARE (five-point scale): 5=81-100%, 4=61-80%, 3=41-60%, 2=21-40%, 1=0-20% damage
Protocol: as §1

| SMILES | percentage damage caused to the plant, SETFA (five-point scale) ([1]; 1000 g/ha) | percentage damage caused to the plant, ECHCG (five-point scale) ([2]; 1000 g/ha) | percentage damage caused to the plant, ZEAMX (five-point scale) ([3]; 1000 g/ha) | percentage damage caused to the plant, IPOHE (five-point scale) ([4]; 1000 g/ha) | percentage damage caused to the plant, AMAPA (five-point scale) ([5]; 1000 g/ha) | percentage damage caused to the plant, AMARE (five-point scale) ([6]; 1000 g/ha) | percentage damage caused to the plant, SETFA (five-point scale) ([1]; 250 g/Ha) | percentage damage caused to the plant, ECHCG (five-point scale) ([2]; 250 g/Ha) | percentage damage caused to the plant, ZEAMX (five-point scale) ([3]; 250 g/Ha) | percentage damage caused to the plant, IPOHE (five-point scale) ([4]; 250 g/Ha) | percentage damage caused to the plant, AMAPA (five-point scale) ([5]; 250 g/Ha) | percentage damage caused to the plant, AMARE (five-point scale) ([6]; 250 g/Ha) | Post-emergence Test SETFA, percentage damage caused to the plant (five-point scale) ([1]; 1000 g/ha) | Post-emergence Test ZEAMX, percentage damage caused to the plant (five-point scale) ([3]; 1000 g/ha) | Post-emergence Test IPOHE, percentage damage caused to the plant (five-point scale) ([4]; 1000 g/ha) | Post-emergence Test AMAPA, percentage damage caused to the plant (five-point scale) ([5]; 1000 g/ha) | Post-emergence Test AMARE, percentage damage caused to the plant (five-point scale) ([6]; 1000 g/ha) |
| --- | --- | --- | --- | --- | --- | --- | --- | --- | --- | --- | --- | --- | --- | --- | --- | --- | --- |
| CCn1c(Cn2cnc(C(F)(F)F)c2)cc(=O)c(C(=O)O)c1-c1ccc(Cl)c(Cl)c1 [Compound 10, 2-(3,4-dichlorophenyl)-1-ethyl-4-oxo-6-[[4-(trifluoromethyl)imidazol-1-yl]methyl]pyridine-3-carboxylic acid] | 0 | 0 | 1 (1=0-20%) | 1 (1=0-20%) | 0 | 0 | – | – | – | – | – | – | – | – | – | – | – |
| CCOC(=O)c1c(-c2ccc(Cl)c(Cl)c2)n(CC)c(Cn2ccc(C(F)(F)F)n2)c(Br)c1=O [Compound 23, ethyl 5-bromo-2-(3,4-dichlorophenyl)-1-ethyl-4-oxo-6-[[3-(trifluoromethyl)pyrazol-1-yl]methyl]pyridine-3-carboxylate] | 2 (2=21-40%) | 2 (2=21-40%) | 1 (1=0-20%) | 2 (2=21-40%) | 2 (2=21-40%) | 1 (1=0-20%) | – | – | – | – | – | – | – | – | – | – | – |
| CCOC(=O)c1c(-c2ccc(Cl)c(Cl)c2)n(CC)c(Cn2ccnc2)c(Br)c1=O [Compound 24, ethyl 5-bromo-2-(3,4-dichlorophenyl)-1-ethyl-6-(imidazol-1-ylmethyl)-4-oxo-pyridine-3-carboxylate] | 1 (1=0-20%) | 1 (1=0-20%) | 3 (3=41-60%) | 1 (1=0-20%) | 1 (1=0-20%) | 1 (1=0-20%) | 1 (1=0-20%) | 1 (1=0-20%) | 1 (1=0-20%) | 2 (2=21-40%) | 1 (1=0-20%) | 1 (1=0-20%) | – | – | – | – | – |
| CCOC(=O)c1c(-c2ccc(Cl)c(Cl)c2)n(CC)c(Cn2cnc([N+](=O)[O-])n2)cc1=O [Compound 43, ethyl 2-(3,4-dichlorophenyl)-1-ethyl-6-[(3-nitro-1,2,4-triazol-1-yl)methyl]-4-oxo-pyridine-3-carboxylate] | 1 (1=0-20%) | 1 (1=0-20%) | 1 (1=0-20%) | 0 | 1 (1=0-20%) | 0 | 0 | 1 (1=0-20%) | 0 | 0 | 1 (1=0-20%) | 1 (1=0-20%) | – | – | – | – | – |
| CCOC(=O)c1c(-c2ccc(Cl)c(Cl)c2)n(CC)c(Cn2cnc([N+](=O)[O-])c2)cc1=O [Compound 51, ethyl 2-(3,4-dichlorophenyl)-1-ethyl-6-[(4-nitroimidazol-1-yl)methyl]-4-oxo-pyridine-3-carboxylate] | 1 (1=0-20%) | 1 (1=0-20%) | 0 | 1 (1=0-20%) | 1 (1=0-20%) | 0 | – | – | – | – | – | – | – | – | – | – | – |
| CCOC(=O)c1c(-c2ccc(Cl)c(Cl)c2)n(CC)c(Cn2cnc(C#N)n2)cc1=O [Compound 54, ethyl 6-[(3-cyano-1,2,4-triazol-1-yl)methyl]-2-(3,4-dichlorophenyl)-1-ethyl-4-oxo-pyridine-3-carboxylate] | 1 (1=0-20%) | 1 (1=0-20%) | 1 (1=0-20%) | 0 | 1 (1=0-20%) | 1 (1=0-20%) | – | – | – | – | – | – | – | – | – | – | – |
| CCn1c(Cn2nc3ccccc3n2)cc(=O)c(C(=O)O)c1-c1ccc(Cl)c(Cl)c1 [Compound 55, 6-(benzotriazol-2-ylmethyl)-2-(3,4-dichlorophenyl)-1-ethyl-4-oxo-pyridine-3-carboxylic acid] | 1 (1=0-20%) | 2 (2=21-40%) | 1 (1=0-20%) | 3 (3=41-60%) | 3 (3=41-60%) | 0 | 0 | 2 (2=21-40%) | 0 | 0 | 1 (1=0-20%) | 1 (1=0-20%) | – | – | – | – | – |
| CCn1c(Cn2ccc(Cl)n2)cc(=O)c(C(=O)O)c1-c1ccc(Cl)c(C#N)c1 [Compound 131, 2-(4-chloro-3-cyano-phenyl)-6-[(3-chloropyrazol-1-yl)methyl]-1-ethyl-4-oxo-pyridine-3-carboxamide acid] | 2 (2=21-40%) | – | 0 | 1 (1=0-20%) | 0 | 0 | – | – | – | – | – | – | – | – | – | – | – |
| CCn1c(Cn2nc(C#N)cc2C#N)cc(=O)c(C(=O)O)c1-c1ccc(Cl)c(Cl)c1 [Compound 132, 2-(3,4-dichlorophenyl)-6-[(3,5-dicyanopyrazol-1-yl)methyl]-1-ethyl-4-oxo-pyridine-3-carboxylic acid] | 1 (1=0-20%) | 1 (1=0-20%) | 1 (1=0-20%) | 0 | – | 0 | – | – | – | – | – | – | – | – | – | – | – |
| CCn1c(Cn2ccc(-c3cccc(Cl)c3)n2)cc(=O)c(C(=O)O)c1-c1ccc(Cl)c(Cl)c1 [Compound 202, 6-[[3-(3-chlorophenyl)pyrazol-1-yl]methyl]-2-(3,4-dichlorophenyl)-1-ethyl-4-oxo-pyridine-3-carboxylic acid] | – | – | – | – | – | – | – | – | – | – | – | – | 1 (1=0-20%) | 1 (1=0-20%) | 1 (1=0-20%) | 0 | 0 |
